Assay results published in PubChem BioAssay (NCI).
Several values for one entry are separate records, joined by “and”; a condition that tells them apart may be missing. Identical values can stand only once.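 Exposure lasted 48 hours, with cells grown in 96-well plates and compounds tested at five concentrations. GI50: concentration for 50% inhibition of growth. At the TGI there is no net growth.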

Key:
Assay in all cases: NCI tumour cell line growth inhibition, 48 h
A549 NSCLC = system: A549 NSCLC
ACHN renal = system: ACHN renal
BT-549 breast = system: BT-549 breast
CCRF-CEM leukemia = system: CCRF-CEM leukemia
COLO 205 colon = system: COLO 205 colon
DU-145 prostate = system: DU-145 prostate
EKVX NSCLC = system: EKVX NSCLC
HCC-2998 colon = system: HCC-2998 colon
HCT-116 colon = system: HCT-116 colon
HCT-15 colon = system: HCT-15 colon
HL-60(TB) leukemia = system: HL-60(TB) leukemia
HOP-62 NSCLC = system: HOP-62 NSCLC
HOP-92 NSCLC = system: HOP-92 NSCLC
HS 578T breast = system: HS 578T breast
HT29 colon = system: HT29 colon
K-562 leukemia = system: K-562 leukemia
KM12 colon = system: KM12 colon
LOX IMVI melanoma = system: LOX IMVI melanoma
M14 melanoma = system: M14 melanoma
MALME-3M melanoma = system: MALME-3M melanoma
MCF7 breast = system: MCF7 breast
MDA-MB-231 breast = system: MDA-MB-231 breast
MDA-MB-435 = system: MDA-MB-435
MDA-MB-468 breast = system: MDA-MB-468 breast
MOLT-4 leukemia = system: MOLT-4 leukemia
NCI-H226 lung = system: NCI-H226 lung
NCI-H23 lung = system: NCI-H23 lung
NCI-H460 lung = system: NCI-H460 lung
NCI-H522 lung = system: NCI-H522 lung
NCI/ADR-RES ovarian = system: NCI/ADR-RES ovarian
OVCAR-3 ovarian = system: OVCAR-3 ovarian
OVCAR-4 ovarian = system: OVCAR-4 ovarian
OVCAR-5 ovarian = system: OVCAR-5 ovarian
OVCAR-8 ovarian = system: OVCAR-8 ovarian
PC-3 prostate = system: PC-3 prostate
RPMI-8226 leukemia = system: RPMI-8226 leukemia
RXF 393 renal = system: RXF 393 renal
SF-268 CNS = system: SF-268 CNS
SF-295 CNS = system: SF-295 CNS
SF-539 CNS = system: SF-539 CNS
SK-MEL-2 melanoma = system: SK-MEL-2 melanoma
SK-MEL-28 melanoma = system: SK-MEL-28 melanoma
SK-OV-3 ovarian = system: SK-OV-3 ovarian
SN12C renal = system: SN12C renal
SNB-19 CNS = system: SNB-19 CNS
SNB-75 CNS = system: SNB-75 CNS
SR leukemia = system: SR leukemia
T-47D breast = system: T-47D breast
U251 CNS = system: U251 CNS
UACC-257 melanoma = system: UACC-257 melanoma
UACC-62 melanoma = system: UACC-62 melanoma

## CN1CCN(C(=O)Oc2cc3c(c4ccccc24)[C@H](CCl)CN3C(=O)c2cc3cc(OCCCN4CCC4)ccc3[nH]2)[C@H]2CSSC[C@H]21
A549 NSCLC
  GI50: 0.00496 µM
  TGI: > 15.3 µM
ACHN renal
  GI50: 0.0025 µM
  TGI: 0.00871 µM
BT-549 breast
  GI50: 0.0192 µM and 0.054 µM
  TGI: 0.0741 µM and 0.348 µM
CCRF-CEM leukemia
  GI50: 0.042 µM and 0.0184 µM
COLO 205 colon
  GI50: 0.0255 µM and 0.0217 µM
  TGI: 0.106 µM and 0.0504 µM
DU-145 prostate
  GI50: 0.00429 µM and 0.00532 µM
EKVX NSCLC
  GI50: 0.0204 µM and 0.0273 µM
  TGI: 0.0596 µM and 0.0707 µM
HCC-2998 colon
  GI50: 0.016 µM and 0.022 µM
  TGI: 0.0473 µM and 0.0527 µM
HCT-116 colon
  GI50: 0.00863 µM and 0.0457 µM
  TGI: > 15.3 µM
HCT-15 colon
  GI50: 0.0131 µM and 0.011 µM
  TGI: 0.0407 µM and 0.0506 µM
HL-60(TB) leukemia
  GI50: 0.0498 µM and 0.0285 µM
  TGI: 0.368 µM
HOP-62 NSCLC
  GI50: 0.00909 µM and 0.0096 µM
  TGI: 0.0332 µM and 0.0453 µM
HOP-92 NSCLC
  GI50: 0.0671 µM
HS 578T breast
  GI50: 0.1 µM and 0.141 µM
  TGI: 0.591 µM and 0.81 µM
HT29 colon
  GI50: 0.0197 µM
K-562 leukemia
  GI50: 0.0244 µM and 0.0172 µM
  TGI: > 15.3 µM
KM12 colon
  GI50: 0.0462 µM and 0.0904 µM
LOX IMVI melanoma
  GI50: 0.00315 µM
  TGI: 0.0248 µM
M14 melanoma
  GI50: 0.0159 µM and 0.0142 µM
  TGI: 0.07 µM and 0.0462 µM
MALME-3M melanoma
  GI50: 0.0182 µM and 0.0193 µM
  TGI: 0.0396 µM and 0.0409 µM
MCF7 breast
  GI50: 0.00153 µM
  TGI: 1.53 µM
MDA-MB-231 breast
  GI50: 0.0321 µM and 0.0378 µM
  TGI: 0.0929 µM and 0.0837 µM
MDA-MB-435
  GI50: 0.0203 µM and 0.0251 µM
  TGI: 0.0479 µM and 0.0554 µM
MDA-MB-468 breast
  GI50: 0.0053 µM
  TGI: 0.0197 µM
MOLT-4 leukemia
  GI50: 0.0235 µM and 0.0142 µM
  TGI: 0.324 µM
NCI-H226 lung
  GI50: 0.0318 µM
  TGI: 1.15 µM
NCI-H23 lung
  GI50: 0.00668 µM and 0.00434 µM
  TGI: 0.0251 µM and 0.0196 µM
NCI-H460 lung
  GI50: 0.00163 µM
  TGI: 0.268 µM
NCI-H522 lung
  GI50: 0.0306 µM and 0.0283 µM
  TGI: 0.154 µM and 0.0758 µM
NCI/ADR-RES ovarian
  GI50: 0.0135 µM
  TGI: 0.0536 µM
OVCAR-3 ovarian
  GI50: 0.0281 µM and 0.0505 µM
  TGI: 0.0883 µM and 0.292 µM
OVCAR-4 ovarian
  GI50: 0.0433 µM and 0.0735 µM
  TGI: 0.553 µM and 0.446 µM
OVCAR-5 ovarian
  GI50: 0.029 µM and 0.0227 µM
  TGI: 0.36 µM and 0.0861 µM
OVCAR-8 ovarian
  GI50: 0.0153 µM and 0.0121 µM
PC-3 prostate
  GI50: 0.018 µM and 0.034 µM
  TGI: > 15.3 µM
RPMI-8226 leukemia
  GI50: 0.036 µM and 0.0351 µM
RXF 393 renal
  GI50: 0.0177 µM and 0.00425 µM
  TGI: 0.0379 µM and 0.0145 µM
SF-268 CNS
  GI50: 0.0198 µM and 0.0201 µM
  TGI: 0.0844 µM and 0.173 µM
SF-295 CNS
  GI50: 0.0106 µM and 0.00214 µM
  TGI: 0.052 µM and 0.00586 µM
SF-539 CNS
  GI50: 0.0168 µM and 0.0224 µM
  TGI: 0.0406 µM and 0.0554 µM
SK-MEL-2 melanoma
  GI50: 0.0285 µM and 0.0313 µM
  TGI: 0.0626 µM and 0.0538 µM
SK-MEL-28 melanoma
  GI50: 0.0187 µM
  TGI: 0.04 µM
SK-OV-3 ovarian
  GI50: 0.0235 µM and 0.0299 µM
  TGI: 0.0596 µM and 0.128 µM
SN12C renal
  GI50: 0.0194 µM and 0.0116 µM
  TGI: 0.459 µM and 0.222 µM
SNB-19 CNS
  GI50: 0.0232 µM and 0.0179 µM
  TGI: 2.46 µM and 0.314 µM
SNB-75 CNS
  GI50: 0.026 µM
  TGI: 0.137 µM
SR leukemia
  GI50: 0.00472 µM
T-47D breast
  GI50: 0.0286 µM
  TGI: 0.598 µM
U251 CNS
  GI50: 0.018 µM and 0.00356 µM
  TGI: 2.3 µM
UACC-257 melanoma
  GI50: 0.0273 µM and 0.0344 µM
  TGI: 0.135 µM and 0.0865 µM
UACC-62 melanoma
  GI50: 0.0105 µM and 0.00424 µM
  TGI: 0.0264 µM and 0.0213 µM
